According to US10168342B2, “Lipid probes and uses thereof” (THE SCRIPPS RESEARCH INSTITUTE, priority 2015, dated 2019):

Legend:
[1] = molecular target: T1, lipid-binding proteins in A549 cells (Homo sapiens, UniProt O15173); assay: SILAC MS mapping of UV-dependent lipid probe targets in A549 cells; type: cell-based; conditions: AEA-DA probe vs NoUV
T1 construct: endogenous in cells; host or cells: A549 (PMA-stimulated for the PTGS2 experiments)

[2] = molecular target: T2, lipid-binding proteins in A549 cells (Homo sapiens, UniProt O95470); assay: as above; type: cell-based; conditions: AEA-DA probe vs NoUV
T2 construct: endogenous in cells; host or cells: A549 (PMA-stimulated for the PTGS2 experiments)

[3] = molecular target: T3, lipid-binding proteins in A549 cells (Homo sapiens, UniProt P07602); assay: as above; type: cell-based; conditions: AEA-DA probe vs NoUV
T3 construct: endogenous in cells; host or cells: A549 (PMA-stimulated for the PTGS2 experiments)

[4] = molecular target: T4, lipid-binding proteins in A549 cells (Homo sapiens, UniProt P21796); assay: as above; type: cell-based; conditions: AEA-DA probe vs NoUV
T4 construct: endogenous in cells; host or cells: A549 (PMA-stimulated for the PTGS2 experiments)

[5] = molecular target: T5, lipid-binding proteins in A549 cells (Homo sapiens, UniProt P30519); assay: as above; type: cell-based; conditions: AEA-DA probe vs NoUV
T5 construct: endogenous in cells; host or cells: A549 (PMA-stimulated for the PTGS2 experiments)

[6] = molecular target: T6, lipid-binding proteins in A549 cells (Homo sapiens, UniProt P45880); assay: as above; type: cell-based; conditions: AEA-DA probe vs NoUV
T6 construct: endogenous in cells; host or cells: A549 (PMA-stimulated for the PTGS2 experiments)

[7] = molecular target: T7, lipid-binding proteins in A549 cells (Homo sapiens, UniProt P67812); assay: as above; type: cell-based; conditions: AEA-DA probe vs NoUV
T7 construct: endogenous in cells; host or cells: A549 (PMA-stimulated for the PTGS2 experiments)

[8] = molecular target: T8, lipid-binding proteins in A549 cells (Homo sapiens, UniProt Q14534); assay: as above; type: cell-based; conditions: AEA-DA probe vs NoUV
T8 construct: endogenous in cells; host or cells: A549 (PMA-stimulated for the PTGS2 experiments)

[9] = molecular target: T9, lipid-binding proteins in A549 cells (Homo sapiens, UniProt Q53GQ0); assay: as above; type: cell-based; conditions: AEA-DA probe vs NoUV
T9 construct: endogenous in cells; host or cells: A549 (PMA-stimulated for the PTGS2 experiments)

[10] = molecular target: T10, lipid-binding proteins in A549 cells (Homo sapiens, UniProt Q86XL3); assay: as above; type: cell-based; conditions: AEA-DA probe vs NoUV
T10 construct: endogenous in cells; host or cells: A549 (PMA-stimulated for the PTGS2 experiments)

[11] = molecular target: T11, lipid-binding proteins in A549 cells (Homo sapiens, UniProt Q9H4I3); assay: as above; type: cell-based; conditions: AEA-DA probe vs NoUV
T11 construct: endogenous in cells; host or cells: A549 (PMA-stimulated for the PTGS2 experiments)

[12] = molecular target: T12, lipid-binding proteins in A549 cells (Homo sapiens, UniProt Q9HAW7); assay: as above; type: cell-based; conditions: AEA-DA probe vs NoUV
T12 construct: endogenous in cells; host or cells: A549 (PMA-stimulated for the PTGS2 experiments)

[13] = molecular target: T13, lipid-binding proteins in A549 cells (Homo sapiens, UniProt Q9NS69); assay: as above; type: cell-based; conditions: AEA-DA probe vs NoUV
T13 construct: endogenous in cells; host or cells: A549 (PMA-stimulated for the PTGS2 experiments)

[14] = tested on: membrane and soluble proteins of HEK293T cells; assay: Gel-based profiling of lipid probe labeling in HEK293T cells; type: cell-based, human; conditions: probe 20 μM, 30 min, UV
Description: For gel-based analysis, after sonicating the membrane pellets in cold DPBS, protein concentrations of each fraction were determined using the BCA protein assay (Bio-Rad) and a microplate reader (Tecan, Infinite F500).
Proteomes were diluted to 1.0 mg/mL (total protein concentration) and 50 μL of each proteome was transferred to separate wells in a 96-well plate.
In some instances, within the arachidonoyl subset of probes, fatty acid- and fatty acid amide-based probes (AA-DA and AEA-DA, respectively) were synthesized and their potential were evaluated to bind and covalently modify (under UV-light exposure) proteins in human cells by gel-based profiling. For example, HEK293T cells were treated with probe (AA-DA or AEA-DA; 20 μM, 30 min), irradiated with UV light (10 min, 4° C.), lysed and the cell proteomes fractionated into membrane and soluble components by centrifugation prior to conjugation to a fluorescent reporter tag (Rh—N3) using CuAAC (FIG. 4A). […] In some instances, this was a consequence of rapid sequestration of this probe into membranes through its metabolic incorporation into phospho/neutral-lipids or into lipidated proteins. […] In some instances, the labeling profile of the AEA-DA probe reflected a limited capacity of the cell to metabolize this amidated probe, which undergoes enzyme-mediated hydrolysis prior to incorporation into other lipids or proteins.

[15] = molecular target: A-DA lipid probe targets in A549 cells (Homo sapiens, UniProt Q5HYK3); assay: In situ competitive SILAC profiling with A-DA probe in (PMA-stimulated) A549 cells; conditions: A549 cells, A-DA probe
[16] = molecular target: A-DA lipid probe targets in A549 cells (Homo sapiens, UniProt P48449); assay: as above; conditions: A549 cells, A-DA 5 μM, drug 5 μM; only two off-targets (TMEM97 and EBP)
[17] = molecular target: T14, A-DA lipid probe targets in A549 cells (Homo sapiens, UniProt Q9UH99); assay: as above; conditions: protein SUN2 (Q9UH99), A549 cells
T14 sequence (Q9UH99 1-717): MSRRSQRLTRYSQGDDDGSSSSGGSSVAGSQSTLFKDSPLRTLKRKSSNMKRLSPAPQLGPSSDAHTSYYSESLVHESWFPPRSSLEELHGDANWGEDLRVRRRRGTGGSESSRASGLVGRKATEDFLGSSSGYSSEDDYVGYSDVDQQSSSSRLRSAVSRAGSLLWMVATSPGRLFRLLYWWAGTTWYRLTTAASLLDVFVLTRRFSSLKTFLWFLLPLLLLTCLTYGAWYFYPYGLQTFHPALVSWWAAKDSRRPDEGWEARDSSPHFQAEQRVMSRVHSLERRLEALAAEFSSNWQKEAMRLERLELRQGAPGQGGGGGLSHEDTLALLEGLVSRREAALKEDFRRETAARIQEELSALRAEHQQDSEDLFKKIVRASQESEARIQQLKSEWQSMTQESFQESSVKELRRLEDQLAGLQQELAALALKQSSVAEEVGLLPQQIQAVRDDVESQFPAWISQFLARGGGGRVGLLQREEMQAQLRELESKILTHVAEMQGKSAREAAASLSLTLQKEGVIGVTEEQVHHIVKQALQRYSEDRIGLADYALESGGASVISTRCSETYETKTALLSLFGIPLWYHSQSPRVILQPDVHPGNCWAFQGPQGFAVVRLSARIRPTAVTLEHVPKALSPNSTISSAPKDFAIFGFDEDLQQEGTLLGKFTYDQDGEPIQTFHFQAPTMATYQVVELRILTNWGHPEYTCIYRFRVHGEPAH

A-DA lipid probe targets in A549 cells (Homo sapiens, UniProt Q5HYK3), sequence (Q5HYK3 43-327): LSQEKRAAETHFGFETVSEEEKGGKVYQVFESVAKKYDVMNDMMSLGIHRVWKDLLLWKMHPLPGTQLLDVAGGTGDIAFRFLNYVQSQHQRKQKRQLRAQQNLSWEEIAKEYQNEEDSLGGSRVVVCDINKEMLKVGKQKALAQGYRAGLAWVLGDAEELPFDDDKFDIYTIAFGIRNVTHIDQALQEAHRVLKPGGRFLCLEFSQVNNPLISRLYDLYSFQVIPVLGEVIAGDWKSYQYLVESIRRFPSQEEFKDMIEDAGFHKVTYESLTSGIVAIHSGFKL
T1 sequence (O15173 whole entry): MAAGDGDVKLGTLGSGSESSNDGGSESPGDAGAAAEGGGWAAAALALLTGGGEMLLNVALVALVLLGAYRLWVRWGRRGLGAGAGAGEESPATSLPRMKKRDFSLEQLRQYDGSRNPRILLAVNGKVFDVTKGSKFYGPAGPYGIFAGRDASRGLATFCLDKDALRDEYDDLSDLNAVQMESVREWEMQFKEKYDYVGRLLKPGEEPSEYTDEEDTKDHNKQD
T12 sequence (Q9HAW7 26-530): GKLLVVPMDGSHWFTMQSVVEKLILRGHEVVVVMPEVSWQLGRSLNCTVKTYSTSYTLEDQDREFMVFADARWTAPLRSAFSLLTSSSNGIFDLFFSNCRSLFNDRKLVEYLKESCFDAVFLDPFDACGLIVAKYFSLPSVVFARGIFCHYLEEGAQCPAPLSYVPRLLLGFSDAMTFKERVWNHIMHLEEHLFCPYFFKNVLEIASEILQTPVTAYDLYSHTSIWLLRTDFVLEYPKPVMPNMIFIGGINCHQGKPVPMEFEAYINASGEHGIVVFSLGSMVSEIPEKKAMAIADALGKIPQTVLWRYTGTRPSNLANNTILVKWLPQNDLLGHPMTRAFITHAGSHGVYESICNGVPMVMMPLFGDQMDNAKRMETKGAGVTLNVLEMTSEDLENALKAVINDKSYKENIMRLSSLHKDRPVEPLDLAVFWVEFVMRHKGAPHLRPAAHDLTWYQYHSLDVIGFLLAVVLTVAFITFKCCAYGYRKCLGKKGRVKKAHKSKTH
T11 sequence (Q9H4I3 whole entry): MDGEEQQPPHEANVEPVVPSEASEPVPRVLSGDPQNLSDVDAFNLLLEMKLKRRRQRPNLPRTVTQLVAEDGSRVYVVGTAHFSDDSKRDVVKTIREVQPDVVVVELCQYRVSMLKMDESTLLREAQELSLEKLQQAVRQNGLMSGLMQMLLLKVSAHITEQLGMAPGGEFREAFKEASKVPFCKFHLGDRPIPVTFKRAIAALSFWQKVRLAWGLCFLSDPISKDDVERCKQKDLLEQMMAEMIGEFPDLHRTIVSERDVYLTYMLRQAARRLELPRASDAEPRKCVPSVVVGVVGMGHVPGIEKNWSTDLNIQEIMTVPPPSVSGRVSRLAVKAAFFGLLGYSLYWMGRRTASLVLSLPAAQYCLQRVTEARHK
T5 sequence (P30519 whole entry): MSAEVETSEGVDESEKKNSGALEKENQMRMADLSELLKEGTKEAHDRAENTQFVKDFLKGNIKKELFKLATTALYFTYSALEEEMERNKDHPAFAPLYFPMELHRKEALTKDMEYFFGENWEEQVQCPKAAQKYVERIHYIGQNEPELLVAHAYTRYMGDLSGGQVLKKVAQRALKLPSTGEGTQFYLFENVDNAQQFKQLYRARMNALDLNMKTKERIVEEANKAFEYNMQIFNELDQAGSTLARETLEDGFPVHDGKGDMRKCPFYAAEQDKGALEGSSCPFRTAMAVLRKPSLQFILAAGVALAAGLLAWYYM
T13 sequence (Q9NS69 whole entry): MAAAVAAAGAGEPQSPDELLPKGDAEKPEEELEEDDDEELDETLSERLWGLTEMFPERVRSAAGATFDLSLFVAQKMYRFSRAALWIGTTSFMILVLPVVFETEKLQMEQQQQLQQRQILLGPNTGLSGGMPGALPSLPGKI
A-DA lipid probe targets in A549 cells (Homo sapiens, UniProt P48449), sequence (P48449 whole entry): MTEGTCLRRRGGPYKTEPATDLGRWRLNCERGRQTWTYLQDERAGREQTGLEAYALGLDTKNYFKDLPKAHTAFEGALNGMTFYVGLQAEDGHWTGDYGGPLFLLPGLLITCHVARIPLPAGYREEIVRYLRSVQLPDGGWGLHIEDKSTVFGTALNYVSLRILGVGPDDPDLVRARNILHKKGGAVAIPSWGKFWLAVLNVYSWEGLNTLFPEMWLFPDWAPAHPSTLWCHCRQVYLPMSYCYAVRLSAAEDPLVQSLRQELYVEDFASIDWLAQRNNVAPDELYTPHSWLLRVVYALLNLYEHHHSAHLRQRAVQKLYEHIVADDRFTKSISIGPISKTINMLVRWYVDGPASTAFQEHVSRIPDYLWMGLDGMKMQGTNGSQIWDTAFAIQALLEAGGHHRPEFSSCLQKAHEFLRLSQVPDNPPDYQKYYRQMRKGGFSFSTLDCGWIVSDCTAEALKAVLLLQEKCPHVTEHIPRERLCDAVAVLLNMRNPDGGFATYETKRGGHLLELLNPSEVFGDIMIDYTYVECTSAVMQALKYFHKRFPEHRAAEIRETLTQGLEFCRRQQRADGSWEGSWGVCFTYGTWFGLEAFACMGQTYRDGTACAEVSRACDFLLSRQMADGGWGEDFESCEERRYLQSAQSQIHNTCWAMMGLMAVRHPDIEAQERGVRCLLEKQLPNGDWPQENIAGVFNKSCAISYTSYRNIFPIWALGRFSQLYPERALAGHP
T4 sequence (P21796 whole entry): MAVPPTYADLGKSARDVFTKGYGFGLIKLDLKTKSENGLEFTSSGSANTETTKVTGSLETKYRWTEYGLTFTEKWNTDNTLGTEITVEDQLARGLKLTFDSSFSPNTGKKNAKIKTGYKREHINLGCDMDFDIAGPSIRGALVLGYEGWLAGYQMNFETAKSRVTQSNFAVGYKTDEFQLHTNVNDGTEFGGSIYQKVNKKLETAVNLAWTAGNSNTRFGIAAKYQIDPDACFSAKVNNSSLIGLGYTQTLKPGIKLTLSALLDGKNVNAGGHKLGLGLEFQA
T10 sequence (Q86XL3 whole entry): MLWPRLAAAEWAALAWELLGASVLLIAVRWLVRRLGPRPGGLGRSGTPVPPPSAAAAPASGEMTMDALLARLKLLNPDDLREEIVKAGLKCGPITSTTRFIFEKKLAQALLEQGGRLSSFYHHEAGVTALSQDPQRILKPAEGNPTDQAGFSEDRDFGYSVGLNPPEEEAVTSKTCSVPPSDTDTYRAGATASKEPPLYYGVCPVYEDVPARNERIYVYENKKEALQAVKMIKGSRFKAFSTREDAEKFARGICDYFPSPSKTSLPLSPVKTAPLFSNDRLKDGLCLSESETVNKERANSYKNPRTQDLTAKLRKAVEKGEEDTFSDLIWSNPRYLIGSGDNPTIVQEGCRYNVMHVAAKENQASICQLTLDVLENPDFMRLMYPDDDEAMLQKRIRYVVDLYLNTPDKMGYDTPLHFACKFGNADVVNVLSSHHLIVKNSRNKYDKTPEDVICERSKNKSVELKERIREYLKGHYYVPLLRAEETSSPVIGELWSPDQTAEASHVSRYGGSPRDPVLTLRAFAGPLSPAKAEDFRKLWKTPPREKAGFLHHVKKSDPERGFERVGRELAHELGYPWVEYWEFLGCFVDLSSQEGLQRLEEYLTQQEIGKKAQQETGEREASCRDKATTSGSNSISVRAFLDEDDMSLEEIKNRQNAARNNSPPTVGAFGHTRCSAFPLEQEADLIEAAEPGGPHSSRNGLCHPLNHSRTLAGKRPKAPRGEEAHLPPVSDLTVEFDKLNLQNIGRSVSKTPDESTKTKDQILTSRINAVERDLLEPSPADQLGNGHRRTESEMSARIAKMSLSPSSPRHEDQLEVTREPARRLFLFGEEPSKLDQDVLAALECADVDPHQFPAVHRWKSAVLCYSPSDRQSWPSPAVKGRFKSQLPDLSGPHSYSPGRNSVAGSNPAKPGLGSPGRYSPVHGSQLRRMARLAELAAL
T8 sequence (Q14534 whole entry): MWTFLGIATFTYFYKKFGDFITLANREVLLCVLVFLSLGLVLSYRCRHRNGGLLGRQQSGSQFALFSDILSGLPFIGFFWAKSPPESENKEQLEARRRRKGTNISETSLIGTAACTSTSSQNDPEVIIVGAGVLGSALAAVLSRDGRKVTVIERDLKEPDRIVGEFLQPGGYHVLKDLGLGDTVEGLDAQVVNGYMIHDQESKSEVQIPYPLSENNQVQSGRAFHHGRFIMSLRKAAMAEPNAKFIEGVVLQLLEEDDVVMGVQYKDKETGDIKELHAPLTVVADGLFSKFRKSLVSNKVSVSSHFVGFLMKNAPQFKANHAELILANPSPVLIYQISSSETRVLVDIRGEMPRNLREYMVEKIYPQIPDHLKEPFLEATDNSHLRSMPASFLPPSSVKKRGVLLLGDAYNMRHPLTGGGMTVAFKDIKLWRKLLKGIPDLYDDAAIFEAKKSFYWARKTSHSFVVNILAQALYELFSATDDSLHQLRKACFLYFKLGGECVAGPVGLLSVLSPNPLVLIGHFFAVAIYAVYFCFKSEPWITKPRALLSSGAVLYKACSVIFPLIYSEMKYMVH
T9 sequence (Q53GQ0 whole entry): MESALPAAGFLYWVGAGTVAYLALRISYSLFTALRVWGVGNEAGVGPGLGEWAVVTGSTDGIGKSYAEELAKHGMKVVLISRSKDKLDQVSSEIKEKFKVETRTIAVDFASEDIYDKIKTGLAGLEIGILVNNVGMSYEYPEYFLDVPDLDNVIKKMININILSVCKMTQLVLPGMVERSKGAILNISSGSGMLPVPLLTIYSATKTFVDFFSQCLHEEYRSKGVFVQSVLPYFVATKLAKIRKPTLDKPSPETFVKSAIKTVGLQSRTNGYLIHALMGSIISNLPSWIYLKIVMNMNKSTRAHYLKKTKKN
T7 sequence (P67812 whole entry): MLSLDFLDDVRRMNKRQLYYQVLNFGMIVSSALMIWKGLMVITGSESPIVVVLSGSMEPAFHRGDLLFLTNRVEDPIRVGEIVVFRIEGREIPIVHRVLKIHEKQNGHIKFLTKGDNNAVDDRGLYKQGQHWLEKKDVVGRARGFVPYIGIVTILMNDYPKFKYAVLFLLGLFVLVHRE

SMILES: C#CCCCC1(CC/C=C\C/C=C\C/C=C\CCCC(=O)NCCO)N=N1 [AEA-DA, (5Z,8Z,11Z)-N-(2-hydroxyethyl)-14-(3-(pent-4-yn-1-yl)-3H-diazirin-3-yl)tetradeca-5,8,11-trienamide]
- SILAC ratio, PGRMC2 (Q80UU9) [1]: 20.0
- SILAC ratio, SGPL1 (O95470) [2]: 20.0
- SILAC ratio, PSAP (P07602) [3]: 20.0
- SILAC ratio, VDAC1 (P21796) [4]: 20.0
- SILAC ratio, HMOX2 (P30519) [5]: 20.0
- SILAC ratio, VDAC2 (P45880) [6]: 20.0
- SILAC ratio, SEC11A (P67812) [7]: 14.0
- SILAC ratio, SQLE (Q14534) [8]: 20.0
- SILAC ratio, HSD17B12 (Q53GQ0) [9]: 20.0
- SILAC ratio, ANKLE2 (Q86XL3) [10]: 20.0
- SILAC ratio, TRABD (Q99JY4) [11]: 20.0
- SILAC ratio, UGT1A7 (Q9HAW7) [12]: 20.0
- SILAC ratio, TOMM22 (Q9CPQ3) [13]: 20.0
- protein labeling profile (membrane vs soluble) [14]: substantial labeling of both soluble and membrane proteins

SMILES: C=CCN(C)CCCCCCOc1ccc(C(=O)c2ccc(Br)cc2)c(F)c1 [Ro488071]
- SILAC ratio, COQ5 (Q5HYK3) ([15]; competitor 5 μM): 2.0
- SILAC ratio, COQ5 (Q5HYK3) ([15]; competitor 50 μM): 3.4

SMILES: C=CCN(C)CCCCCCOc1ccc(C(=O)c2ccc(Br)cc2)c(F)c1 [Ro 48-8071, reference compound]
- competition of probe labeling of LSS [16]: fully competed
- SILAC ratio, A-DA competition ([17]; competitor 5.0 μM): 1.3
- SILAC ratio, A-DA competition ([17]; competitor 50 μM): 1.3
